These are literature values, as cited in patent US20250129016A1, “[…] FOR RADI[…] ARENES AND USE THEREOF” (THE UNIVERSITY OF NORTH CAROLINA AT CHAPEL HILL, priority 2023, published 2025).

The conditions of the data set: previously reported.

For `COc1cc2c(c(OC)c1OC)-c1ccc(OC)c(=O)cc1[C@@H](NC(C)=O)CC2` [39a, Colchicine], the route of excretion entry is “excreted primarily through the biliary system, intestines, and kidneys”.
